“And” between values parts separate entries of the source, which are not always exact repeats. Identical values can stand only once. Like-named read-outs stand apart in the source and are kept apart here.
Columns and labels:
Test in all cases: microbe, parasite or virus in culture
Format in all cases: cell-based
[1] = system: D type HBV in primary human hepatocytes; settings: for EC50: determined in an earlier separate experiment
How it was run: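 Percoll-purified hepatocytes infected with genotype D HBV on day 1, then treated from day 2 with compound refreshed every other day; supernatant HBV DNA quantified by qPCR on day 8. Single agents run at 7 concentrations, 3-fold dilutions, triplicate; combinations in 5×5 matrix, analysed with MacSynergy.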

[2] = system: D type HBV in primary human hepatocytes (HBeAg); settings: Hepatitis B virus, Hepatocyte
How it was run: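 Primary hepatocytes isolated by liver perfusion and Percoll-purified were infected with genotype D HBV one day post-seeding. Compounds were added on day 2 (7 concentrations, 3-fold dilutions, triplicate), with medium refreshed every other day. Day-8 supernatant HBeAg was measured by ELISA and expressed as % inhibition versus DMSO control.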

[3] = system: D type HBV in primary human hepatocytes (HBsAg)
How it was run: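 PHHs isolated by liver perfusion and Percoll, infected with genotype D HBV on day 1; compounds added day 2 and refreshed every other day. Supernatant HBsAg on day 8 by ELISA, % inhibition vs DMSO control. Seven 3-fold concentrations in triplicate; combinations as 5×5 matrix.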

[4] = 3 replicates, Compound 24 0.00 nM, TDF nM: 10.00, 3.33, 1.11, 0.37, 0.12

O=C(Nc1ccc(F)c(F)c1)c1cc(S(=O)(=O)NC2CCCC2)ccc1F [Compound 22]
inhibition at 0.061728 µM ([1]; Hepatitis B virus, Hepatocyte, TAF 0.00 nM, COMPOUND 22 61.728 nM): 2.38% | inhibition at 0.18519 µM ([1]; Hepatitis B virus, Hepatocyte, TAF 0.00 nM, COMPOUND 22 185.19 nM, read-out: AVERAGE % INHIBITION): -3.33% | inhibition at 0.55556 µM ([1]; Hepatitis B virus, Hepatocyte, TAF 0.00 nM, COMPOUND 22 555.56 nM, read-out: AVERAGE % INHIBITION): 8.01% | inhibition at 1.6667 µM ([1]; Hepatitis B virus, Hepatocyte, TAF 0.00 nM, COMPOUND 22 1666.7 nM): 28% | inhibition at 5 µM ([1]; Hepatitis B virus, Hepatocyte, TAF 0.00 nM, COMPOUND 22 5000 nM, read-out: AVERAGE % INHIBITION): 54.7% | inhibition at 0.06173 µM ([1]; Hepatitis B virus, Hepatocyte, read-out: AVERAGE % […] DNA, COMPOUND 22 61.73 nM alone): -11.8% | inhibition at 0.18519 µM ([1]; Hepatitis B virus, Hepatocyte, read-out: AVERAGE % […] DNA, COMPOUND 22 185.19 nM alone, read-out: AVERAGE % INHIBITION HBV DNA): -9.12% | inhibition at 0.55556 µM ([1]; Hepatitis B virus, Hepatocyte, read-out: AVERAGE % […] DNA, COMPOUND 22 555.56 nM alone, read-out: AVERAGE % INHIBITION HBV DNA): -12.7% | inhibition at 1.66667 µM ([1]; Hepatitis B virus, Hepatocyte, read-out: AVERAGE % […] DNA, COMPOUND 22 1666.67 nM alone): 17.9% | inhibition at 5 µM ([1]; Hepatitis B virus, Hepatocyte, read-out: AVERAGE % […] DNA, COMPOUND 22 5000.00 nM alone, read-out: AVERAGE % INHIBITION HBV DNA): 63.1% | EC50 ([1]; Hepatitis B virus, Hepatocyte, HBV DNA, read-out: Inhibitor EC50): 1.02 µM | EC50 ([1]; Hepatitis B virus, Hepatocyte, PHH, read-out: Inhibitor B EC50 HBV DNA): 1.02 µM | inhibition at 0.06173 µM ([2]; read-out: AVERAGE % INHIBITION HBeAg, COMPOUND 22 61.73 nM alone): -16.8% | inhibition at 0.18519 µM ([2]; read-out: AVERAGE % INHIBITION HBeAg, COMPOUND 22 185.19 nM alone): -14.6% | inhibition at 0.55556 µM ([2]; read-out: AVERAGE % INHIBITION HBeAg, COMPOUND 22 555.56 nM alone): -7.23% | inhibition at 1.66667 µM ([2]; read-out: AVERAGE % INHIBITION HBeAg, COMPOUND 22 1666.67 nM alone): 8.5% | inhibition at 5 µM ([2]; read-out: AVERAGE % INHIBITION HBeAg, COMPOUND 22 5000.00 nM alone): 21.7% | inhibition at 61.73 µM ([2]; read-out: AVERAGE % INHIBITION, IFNα2a 0.00 IU/mL, COMPOUND 22 61.73 μM): -7.2% | inhibition at 185.19 µM ([2]; read-out: AVERAGE % INHIBITION, IFNα2a 0.00 IU/mL, COMPOUND 22 185.19 μM): -9.57% | inhibition at 555.56 µM ([2]; read-out: AVERAGE % INHIBITION, IFNα2a 0.00 IU/mL, COMPOUND 22 555.56 μM): -8.17% | inhibition at 1666.67 µM ([2]; read-out: AVERAGE % INHIBITION, IFNα2a 0.00 IU/mL, COMPOUND 22 1666.67 μM): 5.92% | inhibition at 5000 µM ([2]; read-out: AVERAGE % INHIBITION, IFNα2a 0.00 IU/mL, COMPOUND 22 5000.00 μM): 20.9% | inhibition at 0.061728 µM ([2]; read-out: AVERAGE % INHIBITION, TAF 0.00 nM, COMPOUND 22 61.728 nM): -6.71% | inhibition at 0.18519 µM ([2]; read-out: AVERAGE % INHIBITION, TAF 0.00 nM, COMPOUND 22 185.19 nM): -12.4% | inhibition at 0.55556 µM ([2]; read-out: AVERAGE % INHIBITION, TAF 0.00 nM, COMPOUND 22 555.56 nM): -5.06% | inhibition at 1.6667 µM ([2]; read-out: AVERAGE % INHIBITION, TAF 0.00 nM, COMPOUND 22 1666.7 nM): 10.1% | inhibition at 5 µM ([2]; read-out: AVERAGE % INHIBITION, TAF 0.00 nM, COMPOUND 22 5000 nM): 29.7% | EC50 ([2]; read-out: Inhibitor B EC50 HBeAg): 10.7 µM | EC50 ([2]; read-out: Inhibitor EC50): 10.7 µM | inhibition at 0.06173 µM ([3]; Hepatitis B virus, Hepatocyte, read-out: AVERAGE % INHIBITION HBsAg, COMPOUND 22 61.73 nM alone): -9.16% | inhibition at 0.18519 µM ([3]; Hepatitis B virus, Hepatocyte, read-out: AVERAGE % INHIBITION HBsAg, COMPOUND 22 185.19 nM alone): -10.2% | inhibition at 0.55556 µM ([3]; Hepatitis B virus, Hepatocyte, read-out: AVERAGE % INHIBITION HBsAg, COMPOUND 22 555.56 nM alone): -3.82% | inhibition at 1.66667 µM ([3]; Hepatitis B virus, Hepatocyte, read-out: AVERAGE % INHIBITION HBsAg, COMPOUND 22 1666.67 nM alone): 20.6% | inhibition at 5 µM ([3]; Hepatitis B virus, Hepatocyte, read-out: AVERAGE % INHIBITION HBsAg, COMPOUND 22 5000.00 nM alone): 31% | inhibition at 61.73 µM ([3]; Hepatitis B virus, Hepatocyte, read-out: AVERAGE % INHIBITION, IFNα2a 0.00 IU/mL, COMPOUND 22 61.73 μM): -13.8% | inhibition at 185.19 µM ([3]; Hepatitis B virus, Hepatocyte, read-out: AVERAGE % INHIBITION, IFNα2a 0.00 IU/mL, COMPOUND 22 185.19 μM): -10.6% | inhibition at 555.56 µM ([3]; Hepatitis B virus, Hepatocyte, read-out: AVERAGE % INHIBITION, IFNα2a 0.00 IU/mL, COMPOUND 22 555.56 μM): -5.08% | inhibition at 1666.67 µM ([3]; Hepatitis B virus, Hepatocyte, read-out: AVERAGE % INHIBITION, IFNα2a 0.00 IU/mL, COMPOUND 22 1666.67 μM): 10.3% | inhibition at 5000 µM ([3]; Hepatitis B virus, Hepatocyte, read-out: AVERAGE % INHIBITION, IFNα2a 0.00 IU/mL, COMPOUND 22 5000.00 μM): 23.1% | inhibition at 0.061728 µM ([3]; Hepatitis B virus, Hepatocyte, read-out: AVERAGE % INHIBITION, TAF 0 nM, COMPOUND 22 61.728 nM): -0.32% | inhibition at 0.18519 µM ([3]; Hepatitis B virus, Hepatocyte, read-out: AVERAGE % INHIBITION, TAF 0 nM, COMPOUND 22 185.19 nM): 2.37% | inhibition at 0.55556 µM ([3]; Hepatitis B virus, Hepatocyte, read-out: AVERAGE % INHIBITION, TAF 0 nM, COMPOUND 22 555.56 nM): -2.17% | inhibition at 1.6667 µM ([3]; Hepatitis B virus, Hepatocyte, read-out: AVERAGE % INHIBITION, TAF 0 nM, COMPOUND 22 1666.7 nM): 17.7% | inhibition at 5 µM ([3]; Hepatitis B virus, Hepatocyte, read-out: AVERAGE % INHIBITION, TAF 0 nM, COMPOUND 22 5000 nM): 20.7% | EC50 ([3]; Hepatitis B virus, Hepatocyte, read-out: Inhibitor B EC50 HBsAg): 12.8 µM | EC50 ([3]; Hepatitis B virus, Hepatocyte, read-out: Inhibitor EC50): 12.8 µM

CC(C)OC(=O)OCOP(=O)(CO[C@H](C)Cn1cnc2c(N)ncnc21)OCOC(=O)OC(C)C.O=C(O)/C=C/C(=O)O [TDF, tenofovir disoproxil fumarate, reference compound]
AVERAGE % INHIBITION HBV DNA [1, 4]: −6.24% and −1.16% and −15.4% and 3.15% | inhibition at 0.00012 µM ([2]; read-out: AVERAGE % INHIBITION HBeAg, TDF 0.12 nM alone): 7.02% | inhibition at 0.00012 µM ([2]; read-out: AVERAGE % INHIBITION HBeAg, TDF 0.12 nM alone (compound 23 study)): 4.4% | inhibition at 0.00037 µM ([2]; read-out: AVERAGE % INHIBITION HBeAg, TDF 0.37 nM alone): 6.23% | inhibition at 0.00037 µM ([2]; read-out: AVERAGE % INHIBITION HBeAg, TDF 0.37 nM alone (compound 23 study)): 6.74% | inhibition at 0.00333 µM ([2]; read-out: AVERAGE % INHIBITION HBeAg, TDF 3.33 nM alone): 11.6% | inhibition at 0.00333 µM ([2]; read-out: AVERAGE % INHIBITION HBeAg, TDF 3.33 nM alone (compound 23 study)): 9.05% | inhibition at 0.01 µM ([2]; read-out: AVERAGE % INHIBITION HBeAg, TDF 10.00 nM alone): 6.07% | inhibition at 0.01 µM ([2]; read-out: AVERAGE % INHIBITION HBeAg, TDF 10.00 nM alone (compound 23 study)): 0.72% | EC50 ([2]; read-out: Inhibitor A EC50): > 0.1 µM | AVERAGE % INHIBITION (HBsAg) [3, 4]: −3.32% and −3.31% and −6.65% and −1.28% and −3.54% | inhibition at 0.00012 µM ([3]; Hepatitis B virus, Hepatocyte, TDF 0.12 nM alone, read-out: AVERAGE % INHIBITION HBsAg): 3.39% | inhibition at 0.00037 µM ([3]; Hepatitis B virus, Hepatocyte, TDF 0.37 nM alone, read-out: AVERAGE % INHIBITION HBsAg): -0.3% | inhibition at 0.00333 µM ([3]; Hepatitis B virus, Hepatocyte, read-out: AVERAGE % INHIBITION HBsAg, TDF 3.33 nM alone): -0.9% | inhibition at 0.01 µM ([3]; Hepatitis B virus, Hepatocyte, read-out: AVERAGE % INHIBITION HBsAg, TDF 10.00 nM alone): -5.9% | EC50 ([3]; Hepatitis B virus, Hepatocyte, read-out: Inhibitor A EC50): > 0.1 µM | ADDITIVE INHIBITION (HBsAg) ([3]; expected from additive interaction, Compound 24 0.00 nM, TDF nM by row: r27 10.00, r28 3.33, r29 1.11, r30 0.37, r31 0.12): −6.65% and −1.28% and −3.54% and −3.32% and −3.31%

Reference: patent US20220265817A1, “THERAPEUTIC COMPOSITIONS AND METHODS FOR TREATING HEPATITIS B” (priority 2017, published 2022)
